PubChem BioAssay (NCI)
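Cultured in 96-well plates, cells were exposed to test compound for 48 hours across five concentrations. GI50: concentration for 50% inhibition of growth. TGI denotes the concentration required for complete inhibition of growth.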

What was measured:
Assay in all cases: NCI anticancer screen, dose series, 48 h
CCRF-CEM leukemia = test system: CCRF-CEM leukemia
MDA-N = test system: MDA-N
OVCAR-4 ovarian = test system: OVCAR-4 ovarian
NCI/ADR-RES ovarian = test system: NCI/ADR-RES ovarian
OVCAR-8 ovarian = test system: OVCAR-8 ovarian
NCI-H522 lung = test system: NCI-H522 lung
SF-539 CNS = test system: SF-539 CNS
HCT-15 colon = test system: HCT-15 colon
EKVX NSCLC = test system: EKVX NSCLC
HL-60(TB) leukemia = test system: HL-60(TB) leukemia

SMILES | TGI (CCRF-CEM leukemia) | TGI (MDA-N) | TGI (OVCAR-4 ovarian) | TGI (NCI/ADR-RES ovarian) | TGI (OVCAR-8 ovarian) | TGI (NCI-H522 lung) | TGI (SF-539 CNS) | TGI (HCT-15 colon) | TGI (EKVX NSCLC) | GI50 (CCRF-CEM leukemia) | GI50 (OVCAR-4 ovarian) | GI50 (NCI/ADR-RES ovarian) | GI50 (NCI-H522 lung) | GI50 (HL-60(TB) leukemia) | TGI (HL-60(TB) leukemia) | GI50 (SF-539 CNS) | GI50 (HCT-15 colon) | GI50 (OVCAR-8 ovarian) | GI50 (EKVX NSCLC)
CCOC(=O)/C=C(/C(=O)OCC)n1cc(C)c(=O)n(Cc2cn(CCCCOC(C)=O)nn2)c1=O | 2.31 µM | > 100 µM | 39.5 µM | 65.6 µM | 25.8 µM | 4.53 µM | 19.1 µM | > 100 µM | 22.7 µM |  |  |  |  |  |  |  |  |  | 
COc1cccc(C2C(C#N)=C(N)Oc3cc(OCCCCCC[P+](c4ccccc4)(c4ccccc4)c4ccccc4)ccc32)c1 (configuration not stated) | 3.36 µM |  | 1.51 µM | 78.3 µM |  | 2.49 µM | 2.12 µM | 6.14 µM |  | 0.596 µM | 0.384 µM | 11.9 µM | 0.515 µM | 0.263 µM | 0.738 µM | 0.745 µM | 2.24 µM |  | 
COC1OC(C)/C(=N/O)C2OC(C)(C)OC12 (configuration not stated) | > 100 µM |  | > 100 µM | > 100 µM | > 100 µM | > 100 µM | > 100 µM | > 100 µM | > 100 µM |  |  |  |  |  | > 100 µM |  |  |  | 
CCC1OC2(C)CC(C#N)(C#N)C1(C#N)C(=N)O2 (configuration not stated) | > 100 µM | > 100 µM |  |  |  |  | > 100 µM |  | > 100 µM |  |  |  |  |  | > 100 µM |  |  |  | 
Cc1ccc(N=Nc2c(O)ccc3ccccc23)c(C)c1 |  | > 100 µM | > 100 µM | > 100 µM | > 100 µM |  |  | > 100 µM |  |  |  |  |  |  |  |  |  |  | 
O=C(Oc1cncc(Cl)c1)c1cc2ccccc2sc1=O |  | > 100 µM | > 100 µM | > 100 µM | > 100 µM | 47.3 µM | 57.9 µM | > 100 µM | > 100 µM |  |  |  |  |  | > 100 µM |  |  |  | 
Cc1c(C(=O)O)sc2nc[nH]c(=O)c12 |  |  | > 100 µM | > 100 µM | > 100 µM | > 100 µM | > 100 µM | > 100 µM | > 100 µM |  |  |  |  |  | > 100 µM |  |  |  | 
Cc1noc(-c2ccc(C(=O)O)[nH]2)c1Br | > 100 µM | > 100 µM | > 100 µM | > 100 µM | 32.2 µM | > 100 µM |  | > 100 µM | > 100 µM |  |  |  |  |  |  |  |  |  | 
Cc1c2oc(=O)c(C#N)cc2c2ccccn12 | > 100 µM | > 100 µM | > 100 µM | > 100 µM | > 100 µM |  | > 100 µM | > 100 µM | > 100 µM |  |  |  |  |  | > 100 µM |  |  |  | 
CSCSCC(CO)NC(=O)/C=C\c1c(C)[nH]c(=O)[nH]c1=O (configuration not stated) | 37.4 µM |  | 13.4 µM | 296 µM | 89.9 µM | 8.48 µM | 192 µM | 214 µM | 153 µM |  |  |  |  |  | 46.6 µM |  |  |  | 
Oc1c(NCn2nc(CCCCCCCCc3nn(CNc4ccc5ccccc5c4O)c(=S)o3)oc2=S)ccc2ccccc12 |  | 48.5 µM | > 100 µM | > 100 µM |  | > 100 µM |  | > 100 µM | > 100 µM |  |  |  |  |  |  |  |  |  | 
Clc1cc(Cl)nc(Nc2ccc3c(c2)CCC3)n1 | 72.8 µM | > 100 µM | > 100 µM | > 100 µM | > 100 µM |  | > 100 µM | > 100 µM | 71.5 µM |  |  |  |  |  | 73 µM |  |  |  | 
CC(C)(C)N=C1C(=O)C2(C)CCC1C2(C)C (configuration not stated) |  |  | > 100 µM | > 100 µM | > 100 µM |  | > 100 µM | > 100 µM | > 100 µM |  |  |  |  |  |  |  |  |  | 
COc1ccc(-c2nc(-c3cnccn3)n(C/C=C/c3ccccc3)n2)cc1 | > 100 µM | > 100 µM | 98.6 µM | > 100 µM | > 100 µM | > 100 µM | > 100 µM | > 100 µM |  |  |  |  |  |  | > 100 µM |  |  |  | 
COc1ccc(NCn2nc(CCCCCCCCc3nn(CNc4ccc(OC)cc4)c(=S)o3)oc2=S)cc1 |  | > 100 µM | > 100 µM | > 100 µM |  | > 100 µM |  | > 100 µM | > 100 µM |  |  |  |  |  |  |  |  |  | 
CC(=O)OC1C2CCC3CC2C2(SCCS2)C31 (configuration not stated) |  | > 100 µM | > 100 µM | > 100 µM | > 100 µM | > 100 µM | > 100 µM | > 100 µM | > 100 µM |  |  |  |  |  | > 100 µM |  |  |  | 
COc1cc(/C=C2\N=C(c3ccccc3)N(c3cc4cc(Sc5ccccc5)ccc4[nH]3)C2=O)ccc1O | > 50 µM |  | > 50 µM | 36.1 µM | > 50 µM | > 50 µM | > 50 µM | > 50 µM | > 50 µM |  |  |  |  |  | 4.19 µM |  |  |  | 
CC(=O)c1c(-c2ccco2)c(C#N)c(=S)n(C2OC(CO)C(O)C(O)C2O)c1C (configuration not stated) | > 100 µM | > 100 µM | > 100 µM | > 100 µM | > 100 µM |  | > 100 µM | > 100 µM | > 100 µM |  |  |  |  |  | > 100 µM |  |  |  | 
CN1COCN=C1NC#N | > 100 µM |  | > 100 µM |  |  | > 100 µM | > 100 µM | > 100 µM | > 100 µM |  |  |  |  |  | > 100 µM |  |  |  | 
COc1ccc(N=C(C)C(C)=Nc2ccc(OC)cc2)cc1 | > 100 µM |  | > 100 µM | > 100 µM | > 100 µM | > 100 µM | > 100 µM | > 100 µM | > 100 µM |  |  |  |  |  | > 100 µM |  |  |  | 
O=C(NCc1cn(Cc2cccc(Oc3ccccc3)c2)nn1)c1cccnc1NCc1ccc(Cl)cc1 | > 100 µM |  | > 100 µM | > 100 µM | > 100 µM | 5.68 µM | 5.17 µM | > 100 µM | > 100 µM | 3.05 µM | 3.37 µM | 2.86 µM | 2.18 µM | 3.39 µM | 8.07 µM | 2.24 µM | 3.39 µM | 3.63 µM | 3.65 µM
CC12CC(c3ccccc3O1)C(C(=O)Nc1nccs1)C(=O)N2 (configuration not stated) | > 100 µM | > 100 µM | > 100 µM | > 100 µM | > 100 µM | > 100 µM |  | > 100 µM | 90.7 µM |  |  |  |  |  | > 100 µM |  |  |  | 
C=C1C(=O)OC2C[C@@]3(C)CCCC(=C)C3CC12 (some centres not stated) | > 100 µM |  | 26.6 µM |  | 24.6 µM | 3.65 µM | 3.7 µM | 24.7 µM | 31.5 µM |  |  |  |  |  |  |  |  |  | 
COc1c(NC(C)=O)c2ccccc2c2ccccc12 | > 100 µM | > 100 µM | > 100 µM | > 100 µM | > 100 µM | > 100 µM |  | > 100 µM | > 100 µM |  |  |  |  |  | > 100 µM |  |  |  | 
